# Reference: patent US20130012506A1 (priority 2010, published 2013)
# Where two headings read alike, the source gives them in different places.
# Assays:
# [1] = system: M. tuberculosis H37Rv-GFP inside Raw264.7 macrophages; assay: microbe, parasite or virus in culture; conditions: Mycobacterium tuberculosis, 120 h, read-out: minimal inhibitory concentration (MIC)
# [2] = system: M. tuberculosis H37Rv-GFP inside Raw264.7 macrophages
# [3] = system: M. tuberculosis H37Rv-GFP; assay: microbe, parasite or virus in culture; conditions: Mycobacterium tuberculosis, read-out: minimal inhibitory concentration (MIC)
# M. tuberculosis H37Rv [4] = assay: Bacteria killing activity by CFU counting, aerobic incubation; assay type: cell-based, Mycobacterium tuberculosis
# Protocol: FIG. 8 illustrates the colony forming units (CFUs) recovered from macrophages at different time points after infection with M. tuberculosis H37Rv. Cells were infected and treated with the indicated amount of pyridopyrimidione compound 71 (4 to 20 μM);
# The bacteria killing activity of compound 71 was determined using the CFU counting method. Two-fold serial dilutions of compound 71 were incubated aerobically with H37Rv for 21 days at 37° C.
# M. smegmatis mc^2 155 = assay: MIC on fast growing mycobacteria; assay type: cell-based, Mycobacterium smegmatis
# Primary BMDM = assay: Cytotoxicity assay (resazurin, 5 days)
# Jurkat -T-cell = assay: Cytotoxicity assay (resazurin, 5 days); assay type: cell-based
# Protocol: (§1) In order to address compound toxicity, seven cell lines originating from different body tissues were cultivated in the presence of 3-fold dilutions of compounds starting from 100 μM. After 5 days of culture, cell viability was assessed by the resazurin test. Briefly, cells were incubated with 10 μg/mL of resazurin (Sigma-Aldrich St. Louis, Mo.) for 4 h at 37° C. under 5% CO2. Resofurin fluorescence (RFU) was measured as indicated above. Percentage of toxicity on cells was calculated as follows: Cytotoxicity (%)=(RFUDMSO−RFUBlank)−(RFUcompound−RFUblank)/(RFUDMSO−RFUBlank)×100. Percentage of cytotoxicity was plotted against compound concentration and the minimal toxic concentration (MTC50) was determined by non-linear regression analysis as the lowest compound concentration where fifty percent toxicity was observed on the corresponding cell line.
# (§2) To address the issue of toxicity, compound 133 was tested on a panel of seven cell lines derived from different body tissue. Cells were incubated with increasing amounts of compound and cell viability was assessed with resazurin after 5 days of co-incubation. Percentage of cytotoxicity was determined by taking as a reference the resofurin fluorescence measured by DMSO containing wells. The concentration where fifty percent of the cells died was defined as the Minimal Toxic Concentration (MTC50).
# BJ- Skin = assay: Cytotoxicity assay (resazurin, 5 days); assay type: cell-based
# Protocol: as §1, §2
# HEK293- Kidney = assay: Cytotoxicity assay (resazurin, 5 days); assay type: cell-based; conditions: HEK293, 5 days
# Protocol: as §1, §2
# MRC5- Lung = assay: Cytotoxicity assay (resazurin, 5 days); assay type: cell-based; conditions: MRC5, 5 days
# Protocol: as §1, §2
# THP-1 - Monocytes = assay: Cytotoxicity assay (resazurin, 5 days); assay type: cell-based; conditions: THP-1, 5 days
# Protocol: as §1, §2
# SK-N-SH -Brain = assay: Cytotoxicity assay (resazurin, 5 days); assay type: cell-based
# Protocol: as §1, §2
# HepG2-Hepatocytes = assay: Cytotoxicity assay (resazurin, 5 days); assay type: cell-based; conditions: HepG2, 5 days
# Protocol: as §1, §2
# [5] = system: seven cell lines derived from different body tissue; assay: Cytotoxicity assay on a panel of seven cell lines; assay type: cell-based; conditions: all tested cell lines, 5 days of co-incubation
# Protocol: as §1, §2
# M. tuberculosis H37Ra = assay: MIC on laboratory strain, in vitro bacterial growth assay; assay type: cell-based; conditions: Mycobacterium tuberculosis
# [6] = system: Staphylococcus aureus, S. epidermis, S. capitis, S. xylosus, Micrococcus luteus, Listeria innocua, Lactobacillus gallinarum, group G Streptococcus …; assay: Antimicrobial spectrum on clinical isolates, Gram-positive; assay type: cell-based, Gram-positive bacteria
# [7] = system: M. tuberculosis H37Rv in human macrophages; assay type: cell-based, Mycobacterium tuberculosis
# [8] = system: Candida albicans, C. glabrata, C. parapsilosis; assay: Antimicrobial spectrum on clinical isolates, Fungi; assay type: cell-based
# M. tuberculosis H37Rv [9] = assay: MIC on laboratory strain, in vitro bacterial growth assay; assay type: cell-based; conditions: Mycobacterium tuberculosis
# [10] = system: M. tuberculosis H37Rv in mouse macrophages; assay: CFU determination in infected mouse macrophages; assay type: cell-based, Mycobacterium tuberculosis; conditions: mouse cells, seven days after infection
# [11] = system: M. tuberculosis H37Rv-GFP inside Raw264.7 macrophages; assay: in vitro; conditions: mouse
# BCG Pasteur-Tokyo = assay: microbe, parasite or virus in culture; assay type: cell-based; conditions: Mycobacterium tuberculosis variant bovis BCG
# [12] = system: M. tuberculosis clinical isolates; assay type: cell-based, Mycobacterium tuberculosis
# [13] = system: Acinetobacter baumannii, Escherichia coli, Enterobacter cloacae, E. aerogenes, Klebsiella oxytoca, Pseudomonas aeruginosa, Salmonella enteridis, Vibrio mimicus; assay: Antimicrobial spectrum on clinical isolates, Gram-negative; assay type: cell-based, Gram-negative bacteria
# C. striatum, C. jeikeium = assay: Antimicrobial spectrum on clinical isolates, Corynebacterium; assay type: cell-based
# [14] = system: Primary human macrophages; assay: Cytotoxicity assay (resazurin, 5 days)
# [15] = system: M. tuberculosis H37Rv-GFP; assay: in vitro; conditions: Mycobacterium tuberculosis
# [16] = system: M. tuberculosis in primary macrophages; assay type: cell-based, Mycobacterium tuberculosis
structure (smiles),measurement,setting,value
CNC(=O)c1c(Nc2ccc(F)c(Cl)c2)nc2c(OC)cccn2c1=O,melting point,,218 °C (dec.)
COc1cccn2c(=O)c(CO)c(Nc3ccc(F)c(F)c3)nc12,melting point,,231 °C (dec.)
Cn1cnc2ccc(Nc3nc4c(F)cccn4c(=O)c3CO)cc21,melting point,,209 °C (dec.)
COc1cccn2c(=O)c(Br)c(Nc3ccc4ncccc4c3)nc12,melting point,,248 to 249 °C
COC(=O)c1ccc(Nc2nc3c(OC)cccn3c(=O)c2CO)nc1,melting point,,231 to 232 °C (dec.)
"NNC(=O)c1ccncc1 [INH, isoniazid]",MIC,[1],0.1 µg/mL
same,Calculated MICs from the image based quantification of the infection ratio,[2],0.16 ± 0.05 µg/mL
same,cells that appear to be infected,[2],10%
same,MIC,[3],0.1 µg/mL
"COc1cccn2c(=O)c(CO)c(Nc3ccc4ncccc4c3)nc12 [compound 71, 3-(Hydroxymethyl)-9-methoxy-2-(quinolin-6-ylamino)-4H-pyrido[1,2-a]pyrimidin-4-one]",growth of M. tuberculosis (CFU),"M. tuberculosis H37Rv [4]; 0.04 to 20 μM, H37Rv, 21 days at 37° C.",strongly inhibited the growth of M. tuberculosis
same,bacteria killing activity (CFU),M. tuberculosis H37Rv [4]; after 2 days of incubation,fast bacteria killing activity even at the lowest concentration
"Cc1cccn2c(=O)c(C=O)c(Nc3cccc(Cl)c3)nc12 [compound 133, 2-(3-Chlorophenylamino)-9-methyl-4-oxo-4H-pyrido[1,2-a]pyrimidine-3-carbaldehyde]",MIC,M. smegmatis mc^2 155,no effect
same,MIC,"M. smegmatis mc^2 155; Mycolicibacterium smegmatis, MC^2155, read-out: MIC",> 100 µM
same,Range of MTC50,Primary BMDM,>100 µM
same,Range of MTC50,Jurkat -T-cell,>100 µM
same,Range of MTC50,BJ- Skin,>100 µM
same,Range of MTC50,HEK293- Kidney,>100 µM
same,Range of MTC50,MRC5- Lung,>100 µM
same,Range of MTC50,THP-1 - Monocytes,>100 µM
same,Range of MTC50,SK-N-SH -Brain,>100 µM
same,Range of MTC50,HepG2-Hepatocytes,>100 µM
same,"cytotoxicity (Minimal Toxic Concentration, MTC50)",[5],> 100 µM
same,MIC,M. tuberculosis H37Ra,2 µM
same,Antibacterial activity & Specificity,[6],NE (NE: No effect up to 100 μg/mL equivalent to 320 μM)
same,decrease in the number of CFUs,[7],ten-fold decrease in the number of CFUs
same,Antibacterial activity & Specificity,[8],NE (NE: No effect up to 100 μg/mL equivalent to 320 μM)
same,MIC,M. tuberculosis H37Rv [9],2 µM
same,decrease in the number of CFUs,[10],ten-fold decrease in the number of CFUs
same,selectivity ratio,[11],> 50
same,MIC,BCG Pasteur-Tokyo,2 µM
same,Range of MICs for multiple strains (μM),"[12]; Drug Sensitive, Tissue, 2 isolates",2.5-5^ μM
same,Range of MICs for multiple strains,"[12]; INH^R RIF^R Strep^R, Sputum, 3 isolates",0.3 to 1.2 µM
same,Range of MICs for multiple strains,"[12]; INH^R RIF^R Strep^R, Tissue, 1 isolate",1.2 µM
same,Range of MICs for multiple strains,"[12]; MDR, Sputum, 3 isolates",0.3 to 1.2 µM
same,Range of MICs for multiple strains,"[12]; MDR, Tissue, 1 isolate",1.2 µM
same,Range of MICs for multiple strains,"[12]; RIF^R, Sputum, 1 isolate",2.5 µM
same,Range of MICs for multiple strains,"[12]; RIF^R, Tissue, 1 isolate",1.2 µM
same,Range of MICs for multiple strains,"[12]; XDR, Sputum, 4 isolates",0.6 to 2.5 µM
same,Range of MICs for multiple strains (μM),"[12]; XDR, Tissue, 5 isolates",0.3-5^ μM
same,Antibacterial activity & Specificity,[13],NE (NE: No effect up to 100 μg/mL equivalent to 320 μM)
same,Antibacterial activity & Specificity,"C. striatum, C. jeikeium",NE (NE: No effect up to 100 μg/mL equivalent to 320 μM)
same,Range of MTC50,[14],>100 µM
same,selectivity ratio,[15],> 50
"Cc1cccn2c(=O)c(CO)c(Nc3cccc(Cl)c3)nc12 [compound 232, 2-(3-Chlorophenylamino)-3-(hydroxymethyl)-9-methyl-4H-pyrido[1,2-a]pyrimidin-4-one]",bacterial load and host cell abundance,[16],harbored fewer bacteria compared to DMSO control and were more abundant
same,decrease in the number of CFUs,[7],ten-fold decrease in the number of CFUs
same,decrease in the number of CFUs,[10],ten-fold decrease in the number of CFUs
CO[C@H]1/C=C/O[C@@]2(C)Oc3c(C)c(O)c4c(O)c(c(/C=N/N5CCN(C)CC5)c(O)c4c3C2=O)NC(=O)/C(C)=C\C=C\[C@H](C)[C@H](O)[C@@H](C)[C@@H](O)[C@@H](C)[C@H](OC(C)=O)[C@@H]1C [rifampin],Calculated MICs from the image based quantification of the infection ratio,[2],2.4 ± 1.3 µg/mL
same,cells that appear to be infected,[2],10%
